The values that follow come from patent US20040122013A1, “Analogs of nocicettin” (priority 2002, published 2004).

Where two headings read alike, the source gives them in different places.

For assay [1], the system named is mouse vas deferens. As to the kind of experiment: Electrically induced twitch inhibition, mouse vas deferens (mVD).
Assay [2] deals with mice. The class given is in vivo, mouse.
The test system of assay [3] is mice. As to the kind of experiment: Mouse tail withdrawal assay (pronociception). Format: in vivo.
Assay [4] deals with guinea pig ileum. As to the kind of experiment: Electrically induced twitch inhibition, guinea pig ileum (gpI).
The target of assay [5] is T1, human recombinant NOP receptor (Homo sapiens, UniProt P41146).
T1 construct: expressed in transfected cells; host or cells: Chinese hamster ovary (CHO) cells
As to the kind of experiment: cell-based. The conditions noted are these: CHOhNOP, cAMP inhibition.

In assay [6] the test system is N/OFQ-sensitive isolated tissues. In words: N/OFQ-sensitive electrically stimulated isolated tissues (mouse and rat vas deferens, guinea pig ileum). An excerpt:
The compounds of the Table have been evaluated in vitro in several N/OFQ-sensitive isolated tissues from various species such as the rat, mouse and guinea pig and in Chinese hamster ovary cells expressing the human recombinant NOP receptor (CHOhNop). The conditions adopted for studying the effects of the compounds in the electrically stimulated tissues (mouse and rat vas deferens, guinea pig ileum) are described in Bigoni et al. (Naunyn Schmiedebergs Arch Pharmacol 359, 160-7, 1999, herein incorporated by reference), whereas the conditions adopted for investigating the effects in CHOhNop cells are disclosed in Okawa et al. (Br J Pharmacol 127, 123-130, 1999, herein incorporated by reference).

For assay [7], the target named is T1, human recombinant NOP receptor. In words: biochemical. The conditions noted are these: CHOhNOP, stimulation of GTPγS binding. In general terms: GTPγS resists hydrolysis and so accumulates on activated G proteins.
The target in assay [8] is T2, recombinant human NOP receptors expressed in HEK293 cells (Homo sapiens, UniProt P41146).
T2 construct: host or cells: HEK293 cells
As to conditions: Okada et al. 2000; cited from earlier work.

The subject of assay [9] is NOP receptor. In words: Antagonism of agonist effects by naloxone and [Nphe1]N/OFQ(1-13)NH2. The conditions noted are these: tested vs the novel agonist compounds or vs N/OFQ. The protocol:
In isolated tissues the compounds having structure [Phe^1Ψ(CO—NH)Gly^2] mimicked the effects of N/OFQ inducing similar maximal effects, thus acting as full agonists, while those with the structure [Phe^1Ψ(CH2—NH)Gly^2] behaved as partial agonists producing lower maximal effects than N/OFQ. […] Some of the compounds evaluated in vitro were also tested in a battery of in vivo assays of biological functions regulated by N/OFQ. In all the assays most of the analogs mimicked the effects evoked by the natural peptide. In the locomotor activity assay some compounds have been tested at 1 nmol i.c.v. dose. These mimicked the inhibitory effect of N/OFQ, however while the effects of the natural peptide lasted for about 20 min, those induced by some of the novel derivatives were still evident after several hours. […] Similar results were also obtained in the mouse tail withdrawal assay were the compounds mimicked the hyperalgesic actions of N/OFQ.

Setting [10] is: locomotor activity depression, i.c.v., mice.

T1 sequence (P41146 whole entry): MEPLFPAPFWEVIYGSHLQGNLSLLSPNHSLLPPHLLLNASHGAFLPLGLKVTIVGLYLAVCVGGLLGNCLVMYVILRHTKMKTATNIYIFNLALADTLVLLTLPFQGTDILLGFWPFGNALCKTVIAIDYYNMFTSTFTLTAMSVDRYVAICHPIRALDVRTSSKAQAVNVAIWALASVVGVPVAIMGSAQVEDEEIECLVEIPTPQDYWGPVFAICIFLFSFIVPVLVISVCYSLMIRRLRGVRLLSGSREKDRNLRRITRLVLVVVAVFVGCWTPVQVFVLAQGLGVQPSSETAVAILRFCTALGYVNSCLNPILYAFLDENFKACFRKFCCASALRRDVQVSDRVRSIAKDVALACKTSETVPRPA
T2 sequence (P41146 whole entry): as above

Broadly, the pEC50 is −log10 of the EC50, conventionally taken in molar units. Turning to `CC(C)C[C@H](NC(=O)[C@H](CCCCN)NC(=O)[C@H](CCCNC(=N)N)NC(=O)[C@H](C)NC(=O)[C@H](CO)NC(=O)[C@H](CCCCN)NC(=O)[C@H](CCCNC(=N)N)NC(=O)[C@H](C)NC(=O)CNC(=O)[C@@H](NC(=O)[C@H](Cc1ccccc1)NC(=O)CNC(=O)CNC(=O)[C@@H](N)Cc1ccccc1)[C@@H](C)O)C(=O)N[C@@H](C)C(=O)N[C@@H](CC(N)=O)C(=O)N[C@@H](CCC(N)=O)C(=O)O` [N/OFQ, reference compound], in [1], the Emax worked out at 91 ± 2% and the negative logarithm of the EC50 (pEC50) is 7.77. Also, the Effective dose in assay [2] (setting [10]) was 1 nmol. Besides, in assay [3], the Duration of action stood at 15 min and the Effective dose worked out at 1 nmol. In assay [4], this compound yielded an Emax of 56 ± 5% and a negative logarithm of the EC50 (pEC50) of 8.04.
Broadly, the EC50 is the concentration that produces a half-maximal response. For the compound `C[C@H](NC(=O)CNC(=O)[C@@H](NC(=O)[C@H](Cc1ccc(F)cc1)NC(=O)CNC(=O)CNC(=O)[C@@H](N)Cc1ccccc1)[C@@H](C)O)C(=O)N[C@@H](CCCNC(=N)N)C(=O)N[C@@H](CCCCN)C(=O)N[C@@H](CO)C(=O)N[C@@H](C)C(=O)N[C@@H](CCCNC(=N)N)C(=O)N[C@@H](CCCCN)C(=O)N[C@@H](CCCNC(=N)N)C(=O)N[C@@H](CCCCN)C(=O)N[C@@H](CC(N)=O)C(=O)N[C@@H](CCC(N)=O)C(N)=O` [UFP-102], the concentration giving a half-maximal response (EC50) is 0.0676 nM in [5] and 0.0759 nM in assay [7]. The Emax in assay [5] stood at 104 ± 3%; in assay [1], 94 ± 1%; in [4], 55 ± 4%; in assay [7], 12.26 ± 1.37. The values for the pEC50 in assay [1] and in assay [4] were 9.36 and 8.98, respectively. Further, the Duration of action in assay [2] (setting [10]) was >3 h; in assay [3] it was >120 min. For the same compound, the Effective dose in assay [2] (setting [10]) and in assay [3] was 0.1 nmol in each case. Moreover, the “Potency relative to N/OFQ” value in [2] (mouse, in vivo) is reported as “more than 10 fold”. Further, the “Intrinsic activity (full or partial agonist)” value in assay [6] is “full agonist activity”. Also, in assay [6], the “Potency compared with N/OFQ” value is “higher than that of N/OFQ”.
Turning to “H-Phe-Ψ(CH2NH)-Gly-Gly-(pF)Phe-Thr-Gly-Ala-Arg-Lys-Ser-Ala-Arg-Lys-Arg-Lys-Asn-Gln-NH2 [b)]”, in assay [6] (isolated tissues, maximal effect compared with N/OFQ), the “Intrinsic activity (full or partial agonist)” value was “partial agonist activity”.
For [(pI)Phe^4]-N/OFQ-NH2, the “Potency compared with N/OFQ” value in assay [6] (isolated tissues) is given as “lower”.
Consider [Arg^14,Lys^15]N/OFQ, for which the “Potency relative to N/OFQ” value in assay [8] was 17 fold.
[Nphe^1]N/OFQ(1-13)NH2: the pA2 in assay [9] is listed as 6.0-6.4.
